pIC50: −log10 of the molar value.
Assays:
[1] = tested on: Rattus norvegicus; assay: Concentration in rat brain at 3 mg/kg, po after 1.5 hrs; format: ADME, organism-based, Wistar Han; design: dose 3 mg/kg, route oral; conditions: in vivo
[2] = tested on: Rattus norvegicus; assay: Concentration in rat brain at 3 mg/kg, po after 0.16 hrs; format: ADME, organism-based, Wistar Han; design: dose 3 mg/kg, route oral; conditions: in vivo
[3] = tested on: Rattus norvegicus; assay: Concentration in rat brain at 3 mg/kg, po after 2 hrs; format: ADME, organism-based, Wistar Han; design: dose 3 mg/kg, route oral; conditions: in vivo
[4] = tested on: Rattus norvegicus; assay: Concentration in rat brain at 10 mg/kg, po after 6 hrs; format: ADME, organism-based, Wistar Han; design: dose 10 mg/kg, route oral; conditions: in vivo
[5] = tested on: Rattus norvegicus; assay: Concentration in rat brain at 3 mg/kg, po after 4 hrs; format: ADME, organism-based, Wistar Han; design: dose 3 mg/kg, route oral; conditions: in vivo
[6] = Plasma concentration in rat at 1 mg/kg, iv after 1.5 hrs; format: ADME, organism-based; design: dose 1 mg/kg, route intravenous; conditions: Wistar Han
[7] = tested on: Rattus norvegicus; assay: Concentration in rat brain at 1 mg/kg, iv after 2 hrs; format: ADME, organism-based, Wistar Han; design: dose 1 mg/kg, route intravenous; conditions: in vivo
[8] = target: Transient receptor potential cation channel subfamily V member 1 (Rattus norvegicus) (UniProt O35433); assay: Effect on inflammatory mechanical hyperalgesia in rat at 1 hr; format: functional
Transient receptor potential cation channel subfamily V member 1 (Rattus norvegicus), sequence (O35433 whole entry): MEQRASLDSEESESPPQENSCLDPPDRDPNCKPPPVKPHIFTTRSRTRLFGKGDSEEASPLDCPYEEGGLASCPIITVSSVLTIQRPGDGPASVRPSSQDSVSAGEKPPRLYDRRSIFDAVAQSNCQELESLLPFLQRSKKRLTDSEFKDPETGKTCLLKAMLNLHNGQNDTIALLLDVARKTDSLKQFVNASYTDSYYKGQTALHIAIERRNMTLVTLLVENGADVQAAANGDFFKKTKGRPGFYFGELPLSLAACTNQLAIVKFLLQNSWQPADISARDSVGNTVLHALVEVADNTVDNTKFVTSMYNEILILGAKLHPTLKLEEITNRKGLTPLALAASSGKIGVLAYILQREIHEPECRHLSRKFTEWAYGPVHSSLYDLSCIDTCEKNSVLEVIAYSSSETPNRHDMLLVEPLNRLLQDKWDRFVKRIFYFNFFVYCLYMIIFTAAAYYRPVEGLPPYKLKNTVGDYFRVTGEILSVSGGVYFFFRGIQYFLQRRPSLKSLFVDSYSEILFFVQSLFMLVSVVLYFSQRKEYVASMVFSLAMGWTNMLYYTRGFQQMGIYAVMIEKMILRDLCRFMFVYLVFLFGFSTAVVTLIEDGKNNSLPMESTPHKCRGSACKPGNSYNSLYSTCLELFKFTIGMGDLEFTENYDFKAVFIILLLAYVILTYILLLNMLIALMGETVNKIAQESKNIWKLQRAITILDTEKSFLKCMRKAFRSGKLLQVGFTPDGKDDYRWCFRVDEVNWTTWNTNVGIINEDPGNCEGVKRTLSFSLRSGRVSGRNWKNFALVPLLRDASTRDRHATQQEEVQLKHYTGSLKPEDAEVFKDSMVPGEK

[9] = Plasma concentration in rat at 3 mg/kg, po after 0.5 hrs; format: ADME, organism-based; design: dose 3 mg/kg, route oral; conditions: Wistar Han
[10] = tested on: Rattus norvegicus; assay: Concentration in rat brain at 3 mg/kg, po after 0.5 hrs; format: ADME, organism-based, Wistar Han; design: dose 3 mg/kg, route oral; conditions: in vivo
[11] = Plasma concentration in rat at 3 mg/kg, po after 2 hrs; format: ADME, organism-based; design: dose 3 mg/kg, route oral; conditions: Wistar Han
[12] = tested on: Rattus norvegicus; assay: Concentration in rat brain at 10 mg/kg, po after 0.5 hrs; format: ADME, organism-based, Wistar Han; design: dose 10 mg/kg, route oral; conditions: in vivo
[13] = Plasma concentration in rat at 3 mg/kg, po after 9 hrs; format: ADME, organism-based; design: dose 3 mg/kg, route oral; conditions: Wistar Han
[14] = target: Transient receptor potential cation channel subfamily V member 1 (Homo sapiens, UniProt Q8NER1); assay: Inhibition of calcium influx evoked by capsaicin in human TRPV1 expressing cells by fluorescence assay; format: functional
Transient receptor potential cation channel subfamily V member 1, sequence (Q8NER1 whole entry): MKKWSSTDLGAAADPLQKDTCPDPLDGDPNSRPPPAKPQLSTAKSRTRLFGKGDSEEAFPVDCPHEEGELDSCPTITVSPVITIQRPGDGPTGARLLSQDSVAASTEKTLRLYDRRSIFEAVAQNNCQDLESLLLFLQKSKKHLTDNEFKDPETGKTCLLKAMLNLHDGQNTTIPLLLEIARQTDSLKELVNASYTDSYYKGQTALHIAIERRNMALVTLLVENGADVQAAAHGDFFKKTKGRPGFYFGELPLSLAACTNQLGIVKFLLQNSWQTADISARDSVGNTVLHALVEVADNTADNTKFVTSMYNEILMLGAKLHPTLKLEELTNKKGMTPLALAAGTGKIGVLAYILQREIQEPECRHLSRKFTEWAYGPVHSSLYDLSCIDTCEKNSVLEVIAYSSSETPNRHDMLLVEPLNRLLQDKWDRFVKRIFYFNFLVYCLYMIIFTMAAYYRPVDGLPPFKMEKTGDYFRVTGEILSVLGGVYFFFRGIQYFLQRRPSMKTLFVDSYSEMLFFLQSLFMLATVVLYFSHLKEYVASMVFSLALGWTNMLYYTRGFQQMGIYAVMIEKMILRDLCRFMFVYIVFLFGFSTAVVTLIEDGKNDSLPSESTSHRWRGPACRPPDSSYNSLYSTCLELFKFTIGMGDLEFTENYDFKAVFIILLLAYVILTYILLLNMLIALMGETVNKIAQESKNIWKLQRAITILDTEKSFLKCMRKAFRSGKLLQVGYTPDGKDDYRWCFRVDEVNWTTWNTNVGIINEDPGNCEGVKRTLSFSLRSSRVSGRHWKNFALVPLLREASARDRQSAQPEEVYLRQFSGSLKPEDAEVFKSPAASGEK

[15] = Plasma concentration in rat at 3 mg/kg, po after 0.16 hrs; format: ADME, organism-based; design: dose 3 mg/kg, route oral; conditions: Wistar Han
[16] = Plasma concentration in rat at 10 mg/kg, po after 1 hrs; format: ADME, organism-based; design: dose 10 mg/kg, route oral; conditions: Wistar Han
[17] = tested on: Rattus norvegicus; assay: Concentration in rat brain at 1 mg/kg, iv after 0.16 hrs; format: ADME, organism-based, Wistar Han; design: dose 1 mg/kg, route intravenous; conditions: in vivo
[18] = Plasma concentration in rat at 10 mg/kg, po after 0.16 hrs; format: ADME, organism-based; design: dose 10 mg/kg, route oral; conditions: Wistar Han
[19] = Plasma concentration in rat at 1 mg/kg, iv after 4 hrs; format: ADME, organism-based; design: dose 1 mg/kg, route intravenous; conditions: Wistar Han
[20] = Plasma concentration in rat at 10 mg/kg, po after 4 hrs; format: ADME, organism-based; design: dose 10 mg/kg, route oral; conditions: Wistar Han
[21] = tested on: Rattus norvegicus; assay: Cmax in rat brain at 3 mg/kg, po; format: ADME, organism-based, Wistar Han; design: dose 3 mg/kg, route oral; conditions: in vivo
[22] = Plasma concentration in rat at 3 mg/kg, po after 6 hrs; format: ADME, organism-based; design: dose 3 mg/kg, route oral; conditions: Wistar Han
[23] = tested on: Rattus norvegicus; assay: Cmax in rat brain at 1 mg/kg, iv; format: ADME, organism-based, Wistar Han; design: dose 1 mg/kg, route intravenous; conditions: in vivo
[24] = Plasma concentration in rat at 10 mg/kg, po after 0.5 hrs; format: ADME, organism-based; design: dose 10 mg/kg, route oral; conditions: Wistar Han
[25] = Plasma concentration in rat at 1 mg/kg, iv after 0.16 hrs; format: ADME, organism-based; design: dose 1 mg/kg, route intravenous; conditions: Wistar Han
[26] = tested on: Rattus norvegicus; assay: Concentration in rat brain at 1 mg/kg, iv after 0.5 hrs; format: ADME, organism-based, Wistar Han; design: dose 1 mg/kg, route intravenous; conditions: in vivo
[27] = tested on: Rattus norvegicus; assay: Concentration in rat brain at 10 mg/kg, po after 4 hrs; format: ADME, organism-based, Wistar Han; design: dose 10 mg/kg, route oral; conditions: in vivo
[28] = tested on: Rattus norvegicus; assay: Concentration in rat brain at 3 mg/kg, po after 1 hrs; format: ADME, organism-based, Wistar Han; design: dose 3 mg/kg, route oral; conditions: in vivo
[29] = tested on: Rattus norvegicus; assay: Concentration in rat brain at 1 mg/kg, iv after 4 hrs; format: ADME, organism-based, Wistar Han; design: dose 1 mg/kg, route intravenous; conditions: in vivo
[30] = Plasma concentration in rat at 1 mg/kg, iv after 6 hrs; format: ADME, organism-based; design: dose 1 mg/kg, route intravenous; conditions: Wistar Han
[31] = tested on: Rattus norvegicus; assay: Concentration in rat brain at 1 mg/kg, iv after 0.033 hrs; format: ADME, organism-based, Wistar Han; design: dose 1 mg/kg, route intravenous; conditions: in vivo
[32] = tested on: Rattus norvegicus; assay: Concentration in rat brain at 3 mg/kg, po after 6 hrs; format: ADME, organism-based, Wistar Han; design: dose 3 mg/kg, route oral; conditions: in vivo
[33] = Plasma concentration in rat at 1 mg/kg, iv after 0.033 hrs; format: ADME, organism-based; design: dose 1 mg/kg, route intravenous; conditions: Wistar Han
[34] = Plasma concentration in rat at 1 mg/kg, iv after 2 hrs; format: ADME, organism-based; design: dose 1 mg/kg, route intravenous; conditions: Wistar Han
[35] = tested on: Rattus norvegicus; assay: Concentration in rat brain at 3 mg/kg, po after 24 hrs; format: ADME, organism-based, Wistar Han; design: dose 3 mg/kg, route oral; conditions: in vivo
[36] = tested on: Rattus norvegicus; assay: Concentration in rat brain at 10 mg/kg, po after 18 hrs; format: ADME, organism-based, Wistar Han; design: dose 10 mg/kg, route oral; conditions: in vivo
[37] = Plasma concentration in rat at 1 mg/kg, iv after 0.083 hrs; format: ADME, organism-based; design: dose 1 mg/kg, route intravenous; conditions: Wistar Han
[38] = Oral Bioavailability in rat at 3mg/kg; format: ADME, organism-based; conditions: Wistar Han, in vivo

For `Cc1nc2cc(C(C)C)c(-c3ccc(Cl)c(OCC4CC4)c3)cc2c(=O)[nH]1`, which Ct [1] is on record?
The Ct was 951 pmol/g.

And the Ct [2]?
The Ct was 32 pmol/g.

What about the Ct [3] of the same molecule?
The Ct was 1364 pmol/g.

What about the Ct [4] of the same molecule?
Its Ct is 1042 pmol/g.

And the Ct [5]?
Its Ct is 1666 pmol/g.

And the concentration at 1.5 h [6]?
Its concentration at 1.5 h is 1120 nM.

And the Ct [7]?
Its Ct is 449 pmol/g.

What about the ED50 [8] of the same molecule?
Its ED50 is 4.7 mg/kg.

What about the concentration at 0.5 h [9] of the same molecule?
The concentration at 0.5 h was 599 nM.

What about the Ct [10] of the same molecule?
Its Ct is 211 pmol/g.

What about the concentration at 2 h [11] of the same molecule?
Its concentration at 2 h is 1420 nM.

What about the Ct [12] of the same molecule?
The Ct was 181 pmol/g.

And the concentration at 9 h [13]?
Its concentration at 9 h is 904 nM.

And the pIC50 [14]?
Its pIC50 is 7.30.

What about the concentration at 0.16 h [15] of the same molecule?
Its concentration at 0.16 h is 60 nM.

What about the concentration at 1 h [16] of the same molecule?
Its concentration at 1 h is 2680 nM.

What about the Ct [17] of the same molecule?
Its Ct is 944 pmol/g.

And the concentration at 0.16 h [18]?
The concentration at 0.16 h was 71 nM.

And the concentration at 4 h [19]?
The concentration at 4 h was 726 nM.

And the concentration at 4 h [20]?
The concentration at 4 h was 5970 nM.

And the Cmax [21]?
Its Cmax is 1666 pmol/g.

And the concentration at 6 h [22]?
Its concentration at 6 h is 1860 nM.

What about the Cmax [23] of the same molecule?
Its Cmax is 1079 pmol/g.

And the concentration at 0.5 h [24]?
Its concentration at 0.5 h is 1460 nM.

What about the concentration at 0.16 h [25] of the same molecule?
Its concentration at 0.16 h is 2200 nM.

And the Ct [26]?
Its Ct is 1079 pmol/g.

What about the Ct [27] of the same molecule?
The Ct was 1515 pmol/g.

And the Ct [28]?
Its Ct is 641 pmol/g.

What about the Ct [29] of the same molecule?
Its Ct is 155 pmol/g.

What about the concentration at 6 h [30] of the same molecule?
Its concentration at 6 h is 488 nM.

What about the Ct [31] of the same molecule?
The Ct was 764 pmol/g.

What about the Ct [32] of the same molecule?
Its Ct is 1258 pmol/g.

What about the concentration at 0.033 h [33] of the same molecule?
The concentration at 0.033 h was 3540 nM.

What about the concentration at 2 h [34] of the same molecule?
Its concentration at 2 h is 1080 nM.

What about the Ct [35] of the same molecule?
The Ct was less than 125 pmol/g.

And the Ct [36]?
The Ct was 199 pmol/g.

And the concentration at 0.083 h [37]?
The concentration at 0.083 h was 2650 nM.

And the bioavailability [38]?
The bioavailability was 75%.
